These results are taken from patent publication US20040261578A1, “Stable self-organizing plant-organism systems for remediating polluted soils and waters” (priority 2003, published 2004).

One series concerns wheat seedlings. The note with it: 15000 ppm Prussian blue; 4.5 cm in its absence.
Another series deals with maize inbred line Mo17. Kind of series: Shoot length of Mo17 after soil treatments and T22 seed treatment, Arkport sandy loam field soil. In kind it is in vivo. The following applies: no seed treatment, soil drenched with mefenoxam, seven days after planting.

Description for maize inbred line Mo17: Ten-day assays were conducted in larger boxes (5×11×11 cm). Four or five seeds, either treated or not treated with T22, were planted in each box and plants were grown for various lengths of time with 12 hr diurnal fluorescent lighting and were watered as needed. In some experiments, soils were autoclaved to examine maize growth responses in the absence of natural soil pathogens. In addition, some soils were drenched with mefenoxam ((R)-2-[2,6-dimethylphenyl)-methoxyacetylamino]-propionic acid methyl ester]; Subdue MAXX, Novartis, Research Triangle, NC) according to the manufacturer's directions.
Excerpt for wheat seedlings: Ten wheat seeds were germinated in petri dishes containing approximately 50 g of grit sand. Each dish was moistened with plant nutrient solution in the presence or absence of 15000 ppm metallocyanide Prussian blue.

Consider `[C-]#N.[C-]#N.[C-]#N.[C-]#N.[C-]#N.[C-]#N.[C-]#N.[C-]#N.[C-]#N.[C-]#N.[C-]#N.[C-]#N.[C-]#N.[C-]#N.[C-]#N.[C-]#N.[C-]#N.[C-]#N.[Fe+2].[Fe+2].[Fe+2].[Fe+3].[Fe+3].[Fe+3].[Fe+3]` [Prussian blue, Fe4 [Fe(CN)6]3], for which, in the series on wheat seedlings, the “Mean root length of the wheat seedlings” value came out at 2.0 cm.

`COCC(=O)N(c1c(C)cccc1C)[C@H](C)C(=O)OC` [mefenoxam]: in the series on maize inbred line Mo17, the Shoot length is listed as 63ab xy mm.
